Laboratory results taken from ChEMBL document CHEMBL1201862, “PubChem BioAssay data set” (2004).
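1) Cells in 96-well plates. 2) Compound, 48 h, 5 concentrations. 3) Linear interpolation between surrounding doses. 4) Unreached endpoint = highest concentration. GI50 = concentration required for 50% inhibition of growth.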 Calls of active or inactive are those of the source. No stated cut-off is given here; in the data, active = GI50 up to about 1.1 µM and inactive = higher.

How the values were obtained:
Test in all cases: growth of human tumour cells (NCI), 48 h
A549 = system: A549
UACC-257 = system: UACC-257
UACC-62 = system: UACC-62
NCI-H226 = system: NCI-H226
MOLT-4 = system: MOLT-4
IGROV-1 = system: IGROV-1
UO-31 = system: UO-31
LOX IMVI = system: LOX IMVI
OVCAR-3 = system: OVCAR-3
NCI-H522 = system: NCI-H522
OVCAR-5 = system: OVCAR-5
ACHN = system: ACHN
SNB-19 = system: SNB-19
SR = system: SR
TK-10 = system: TK-10
MDA-MB-435 = system: MDA-MB-435
OVCAR-8 = system: OVCAR-8
Malme-3M = system: Malme-3M
HCT-116 = system: HCT-116
SF-295 = system: SF-295

Measured: GI50

O=c1cc(/N=N\c2ccc(Cl)cc2)[nH]c(=O)[nH]1
inactive: A549 10.1 µM | UACC-257 4.83 µM | UACC-62 3.48 µM | NCI-H226 12.9 µM | MOLT-4 2.9 µM | IGROV-1 3.44 µM | UO-31 4.82 µM | LOX IMVI 1.57 µM | OVCAR-3 4.12 µM | NCI-H522 1.71 µM | OVCAR-5 13.6 µM | ACHN 2.32 µM | SNB-19 10.3 µM | SR 1.2 µM | TK-10 7.55 µM | MDA-MB-435 4.84 µM | OVCAR-8 5.68 µM | Malme-3M 3.01 µM | HCT-116 1.94 µM | SF-295 13.9 µM

COc1ccc(C2C3=C(COC3=O)OC(C)(C)Oc3cc4c(cc32)OCO4)cc1 (centres undefined)
inactive: A549 35.6 µM | UACC-257 38.3 µM | UACC-62 25.5 µM | NCI-H226 > 55.3 µM | MOLT-4 23.3 µM | IGROV-1 29.3 µM | UO-31 28.8 µM | LOX IMVI 26.2 µM | OVCAR-3 36.6 µM | NCI-H522 17.4 µM | OVCAR-5 56.8 µM | ACHN 40 µM | SNB-19 45.3 µM | SR 43.1 µM | TK-10 43.5 µM | MDA-MB-435 3.51 µM | OVCAR-8 55.8 µM | Malme-3M 17.7 µM | HCT-116 25.4 µM | SF-295 35.2 µM

Nc1c2cc3ccc2nc2ccc(cc12)OCCOCCOCCOCCOCCOCCO3
inactive: A549 > 10 µM | UACC-257 > 10 µM | UACC-62 > 10 µM | NCI-H226 > 10 µM | MOLT-4 > 10 µM | IGROV-1 > 10 µM | LOX IMVI > 10 µM | OVCAR-3 > 10 µM | NCI-H522 > 10 µM | OVCAR-5 > 10 µM | ACHN > 10 µM | SNB-19 > 10 µM | SR > 10 µM | TK-10 > 10 µM | MDA-MB-435 > 10 µM | OVCAR-8 > 10 µM | Malme-3M > 10 µM | HCT-116 > 10 µM | SF-295 > 10 µM

Cc1c2cccc-2ccc2c1[nH]c1ccccc12
inactive: A549 2.22 µM | UACC-257 1.68 µM | UACC-62 1.91 µM | NCI-H226 1.97 µM | MOLT-4 3.57 µM | IGROV-1 2 µM | UO-31 1.63 µM | LOX IMVI 2.55 µM | OVCAR-3 2.47 µM | NCI-H522 1.93 µM | OVCAR-5 2.12 µM | ACHN 1.77 µM | SNB-19 2.7 µM | SR 3.05 µM | TK-10 2.32 µM | MDA-MB-435 2.27 µM | OVCAR-8 2.54 µM | Malme-3M 1.89 µM | HCT-116 2.12 µM | SF-295 2.38 µM

CC(=O)C(C(C)=O)[C@@H]1OC(C)(C)O[C@@H]1[C@H]1COC(C)(C)O1
inactive: A549 > 100 µM | UACC-257 64 µM | UACC-62 > 100 µM | NCI-H226 > 100 µM | MOLT-4 47.5 µM | IGROV-1 35.6 µM | UO-31 55.2 µM | LOX IMVI 87.1 µM | OVCAR-3 62.8 µM | NCI-H522 26.9 µM | OVCAR-5 87.9 µM | ACHN > 100 µM | SNB-19 64.1 µM | SR 38.8 µM | TK-10 > 100 µM | MDA-MB-435 38.7 µM | OVCAR-8 40.6 µM | Malme-3M 22.5 µM | HCT-116 30.9 µM | SF-295 > 100 µM

Cc1ccc(/C=C2\CCCCCC2=O)cc1
inactive: A549 > 100 µM | UACC-257 > 100 µM | UACC-62 > 100 µM | NCI-H226 > 100 µM | MOLT-4 > 100 µM | IGROV-1 > 100 µM | UO-31 > 100 µM | LOX IMVI > 100 µM | OVCAR-3 > 100 µM | NCI-H522 > 100 µM | OVCAR-5 > 100 µM | ACHN > 100 µM | SNB-19 > 100 µM | SR > 100 µM | TK-10 > 100 µM | MDA-MB-435 > 100 µM | Malme-3M > 100 µM | HCT-116 > 100 µM | SF-295 > 100 µM

CC(C)n1c2c([n+](C)c1/C=C/c1ccccc1)C(=O)c1ccccc1C2=O
inactive: UO-31 3.55 µM | ACHN 2 µM
active: A549 0.587 µM | UACC-257 0.0398 µM | UACC-62 0.198 µM | NCI-H226 0.791 µM | MOLT-4 0.0504 µM | IGROV-1 0.0157 µM | LOX IMVI 0.0721 µM | OVCAR-3 < 0.01 µM | NCI-H522 0.0201 µM | OVCAR-5 0.501 µM | SNB-19 0.223 µM | SR 0.257 µM | TK-10 0.538 µM | MDA-MB-435 0.237 µM | OVCAR-8 0.07 µM | Malme-3M 0.107 µM | HCT-116 0.0748 µM | SF-295 0.916 µM

C/C(=N/NC(=S)N1CCCCC1)c1ccccc1O
inactive: A549 > 31.6 µM | UACC-257 > 31.6 µM | UACC-62 > 31.6 µM | NCI-H226 > 31.6 µM | MOLT-4 > 31.6 µM | IGROV-1 > 41.2 µM | UO-31 > 31.6 µM | LOX IMVI > 31.6 µM | OVCAR-3 16.4 µM | NCI-H522 26.5 µM | OVCAR-5 > 31.6 µM | ACHN > 31.6 µM | SNB-19 > 31.6 µM | SR > 10 µM | TK-10 > 31.6 µM | MDA-MB-435 > 31.6 µM | OVCAR-8 > 31.6 µM | Malme-3M > 31.6 µM | HCT-116 > 10 µM | SF-295 > 31.6 µM

COc1ccc2nc3cc([N+](=O)[O-])ccc3c(NNc3ccc(Cl)cc3)c2c1
inactive: A549 17.2 µM | UACC-62 2.44 µM | MOLT-4 26.1 µM | IGROV-1 2.94 µM | UO-31 34.3 µM | LOX IMVI 26.9 µM | OVCAR-3 2.39 µM | NCI-H522 22.6 µM | OVCAR-5 2.31 µM | ACHN 32.9 µM | SNB-19 75.7 µM | SR 12.5 µM | TK-10 1.9 µM | MDA-MB-435 26.1 µM | OVCAR-8 21.1 µM | Malme-3M 43.2 µM | HCT-116 5.07 µM | SF-295 56.8 µM
active: UACC-257 1.01 µM | NCI-H226 1.1 µM

CN1CN(c2ccccc2)C2(CCNCC2)C1=O
inactive: A549 > 100 µM | UACC-257 > 100 µM | UACC-62 > 100 µM | NCI-H226 > 100 µM | MOLT-4 > 100 µM | IGROV-1 > 100 µM | UO-31 > 100 µM | LOX IMVI > 100 µM | OVCAR-3 > 100 µM | NCI-H522 > 100 µM | OVCAR-5 > 100 µM | ACHN > 100 µM | SNB-19 > 100 µM | SR > 100 µM | TK-10 > 100 µM | MDA-MB-435 > 100 µM | OVCAR-8 > 100 µM | Malme-3M > 100 µM | HCT-116 > 100 µM | SF-295 > 100 µM

CC(O)[C@@]1(c2ccccc2)CC2(CCN(C)CC2)O[C@H]1C (some centres undefined)
inactive: A549 > 100 µM | UACC-257 > 100 µM | UACC-62 99.5 µM | NCI-H226 > 100 µM | MOLT-4 > 100 µM | IGROV-1 > 100 µM | UO-31 39.8 µM | LOX IMVI > 100 µM | OVCAR-3 > 100 µM | NCI-H522 > 100 µM | OVCAR-5 > 100 µM | ACHN > 100 µM | SNB-19 > 100 µM | SR > 100 µM | TK-10 > 100 µM | MDA-MB-435 > 100 µM | OVCAR-8 > 100 µM | Malme-3M > 100 µM | SF-295 > 100 µM

COC(=O)CCN1CCN(CCO)CC1C (centres undefined)
inactive: A549 > 10 µM | UACC-257 > 10 µM | UACC-62 > 10 µM | NCI-H226 > 10 µM | MOLT-4 > 10 µM | IGROV-1 > 10 µM | UO-31 > 10 µM | LOX IMVI > 10 µM | OVCAR-3 > 10 µM | NCI-H522 > 10 µM | ACHN > 10 µM | SNB-19 > 10 µM | SR > 10 µM | TK-10 > 10 µM | MDA-MB-435 > 10 µM | OVCAR-8 > 10 µM | Malme-3M > 10 µM | HCT-116 > 10 µM | SF-295 > 10 µM

COc1cccc(N2C(=O)C3c4[nH]c5ccccc5c4C4CCCC4C3C2=O)c1 (centres undefined)
inactive: A549 4.62 µM | UACC-257 > 10 µM | UACC-62 > 10 µM | NCI-H226 2.57 µM | MOLT-4 > 10 µM | IGROV-1 6.71 µM | LOX IMVI 5.38 µM | OVCAR-3 2.36 µM | NCI-H522 > 10 µM | OVCAR-5 > 10 µM | ACHN 5.93 µM | SNB-19 5.81 µM | SR 1.48 µM | TK-10 > 10 µM | MDA-MB-435 > 10 µM | OVCAR-8 3.74 µM | Malme-3M 2.78 µM | HCT-116 2.87 µM | SF-295 > 10 µM

ClC1(c2ccccc2)c2ccc(Br)cc2-c2cc(Br)ccc21
inactive: A549 17.1 µM | UACC-257 18.3 µM | NCI-H226 17.4 µM | MOLT-4 32.5 µM | IGROV-1 16.2 µM | UO-31 15.5 µM | LOX IMVI 17.8 µM | OVCAR-3 16.9 µM | NCI-H522 14.2 µM | OVCAR-5 17.3 µM | ACHN 16.1 µM | SNB-19 16.9 µM | SR 32.7 µM | TK-10 19 µM | MDA-MB-435 13.5 µM | OVCAR-8 18.2 µM | Malme-3M 17 µM | HCT-116 14.9 µM | SF-295 17.9 µM
